Laboratory results: patent publication US20090123907A1 (priority 2004, published 2009)

Experiments:
[1] = tested on: plasma proteins; experiment: Protein resistance to glass beads; details: Na citrate 0.4%, lysine citrate 2.0%
From the text: The above experiment was repeated using glass beads as a denaturing agent. Generally, contact of blood plasma with glass surfaces results in activation or denaturation. […].

[2] = tested on: plasma proteins; experiment: Protein resistance to 56° C. treatment; details: Na citrate 0.4%, lysine citrate 2.0%
From the text: […]. In many cases heat treatments have been used to reduce or eliminated infectious agents from blood products. A problem with such an approach has been heat induced changes in the antigenicity of certain blood components. […]. A continuation of this experiment was set up to check also long term room temperature stability. It is generally believed that resistance to heat is an indicator of room temperature stability. That is the justification for estimating long term stability of products by using “accelerated” stability tests based on storage at an elevated temperature. In the presented experiment it is important to note that different plasma sample were used for the two different anticoagulants because a single sample was not large enough to provide sufficient volume for all of the tests over the life of the extended experiment.

[3] = tested on: clot formation; experiment: Clotting times (PT, PTT) of anticoagulated whole blood; type: biochemical
Protocol: (§1) In this experiment whole blood (an aliquot of which clotted within 10 minutes without anticoagulant) was modified by adding a number of different anticoagulant compositions. Sodium citrate was used as an anticoagulant at 0.65%, 0.75% and 0.9% by weight. These are all higher citrate levels than the usual 0.4% by weight. Amino acid citrates (lysine or arginine) were used at 0.65%, 0.75% and 0.9% by weight based on the weight of the citric acid. The amino acid counterion was used in sufficient quantity to adjust the pH as explained above.

[4] = Level of calcium measured in blood with citrate anticoagulants
From the text: Lysine citrate is compared to traditional sodium citrate. The various citrate levels are expressed as a weight percentage of citrate so that equivalent levels have the same amount of citrate. The same blood was used throughout so that all of the samples started with the same calcium concentration. Since citrate is an effective chelator of calcium one expects the measured level of calcium to decrease with increasing levels of citrate as more and more of the calcium is “tied up” by the citrate. There is an equilibrium between free measurable calcium and calcium associated with citrate molecules. As the concentration of citrate is increased, calcium levels are lowered as there is a higher and higher probability that a given calcium ion will be interacting with a citrate molecule. […] There are at least two different ways of interpreting phenomenon. It is possible that when lysine molecules interact with citrate molecules, the interaction somehow prevents the chelation of calcium. This would explain the higher calcium measurements because there would effectively be a lower level of citrate present. […] That too would explain the higher measured calcium level but does little to solve the remainder of the conundrum. […] Thus, another advantage of lysine citrate is enhanced patient safety and a simpler plasmapheresis set up since it will not longer be necessary to administer protective doses of calcium.

[5] = tested on: red blood cells; experiment: Red blood cell integrity during storage at 4° C.; type: cell-based; design: MCV Day 20 / MCV Day 33: unit not given here; details: for RBC Day 1: whole blood; for MCV Day 20 / MCV Day 33: whole blood stored at 4° C.
Protocol: as §1
To judge red cell condition the blood was counted and various other measurements were taken initially and after 20 and 33 days of storage at 4° C. Apparent initial/differences in RBC counts are due to dilution caused by adding extra anticoagulant. Mean cell volume (MCV) is a red cell index that is a useful measure of red cell health. […] It is believed that a citrate level of at least about 1.0% by weight (i.e., more than two times the usual amount) is necessary to ensure against all activation of plasma proteins. […] On the other hand, amino acid citrates, which are very effective anticoagulants, are also effective at preventing red cell damage.

[6] = Post 30 min rocking with glass beads
[7] = Post 56° C. for five minutes, plasma

NCCCC[C@H](N)C(=O)O.O=C(O)CC(O)(CC(=O)O)C(=O)O [Lysine Citrate, lysine citrate]
Alk. Phos [1, 6]: 24 IU/.L | LDH [1, 6]: 96 IU/L | SGOT [1, 6]: 12 IU/L | SGPT [1, 6]: 24 IU/L | fIX [1, 6]: 84% | fV [1, 6]: 67% | fVIII [1, 6]: 62% | fibrinogen [1, 6]: 202 mg/dL | Alk. Phos ([1]; Pre glass beads): 25 IU/.L | LDH ([1]; Pre glass beads): 99 IU/L | SGOT ([1]; Pre glass beads): 12 IU/L | SGPT ([1]; Pre glass beads): 26 IU/L | fIX ([1]; Pre glass beads): 98% | fV ([1]; Pre glass beads): 95% | fVIII ([1]; Pre glass beads): 97% | fibrinogen ([1]; Pre glass beads): 247 mg/dL | Alk. Phos [2, 7]: 16 IU/.L | LDH [2, 7]: 91 IU/L | SGOT [2, 7]: 7 IU/L | SGPT [2, 7]: 17 IU/L | fIX [2, 7]: 79% | fV [2, 7]: 69% | fVIII [2, 7]: 88% | fibrinogen [2, 7]: 147 mg/dL | Alk. Phos ([2]; before heating, fresh plasma): 23 IU/.L | LDH ([2]; before heating, fresh plasma): 97 IU/L | SGOT ([2]; before heating, fresh plasma): 10 IU/L | SGPT ([2]; before heating, fresh plasma): 20 IU/L | fIX ([2]; before heating, fresh plasma): 99% | fV ([2]; before heating, fresh plasma): 97% | fVIII ([2]; before heating, fresh plasma): 102% | fibrinogen ([2]; before heating, fresh plasma): 198 mg/dL | PT (4 hrs at RT) ([3]; anticoagulant 0.65 wgt %): 14.1 s | PTT (4 hrs at RT) ([3]; anticoagulant 0.65 wgt %): 33.8 s | PT (4 hrs at RT) ([3]; anticoagulant 0.75 wgt %): 16.6 s | PTT (4 hrs at RT) ([3]; anticoagulant 0.75 wgt %): 33.2 s | PT (4 hrs at RT) ([3]; anticoagulant 0.90 wgt %): 36.5 s | PTT (4 hrs at RT) ([3]; anticoagulant 0.90 wgt %): 44.4 s | Level of calcium measured ([4]; Citrate Level 0.01%): 9.2 mg/dL | Level of calcium measured ([4]; Citrate Level 0.05%): 9.1 mg/dL | Level of calcium measured ([4]; Citrate Level 0.1%): 7.1 mg/dL | Level of calcium measured ([4]; Citrate Level 0.25%): 4.8 mg/dL | Level of calcium measured ([4]; Citrate Level 0.5%): 1.6 mg/dL | Level of calcium measured ([4]; Citrate Level 1%): 0.4 mg/dL | RBC Day 1 ([5]; anticoagulant 0.65 wgt %): 5.37 10^6/μl | MCV Day 20 ([5]; anticoagulant 0.65 wgt %): 93.0 | MCV Day 33 ([5]; anticoagulant 0.65 wgt %): 93.8 | RBC Day 1 ([5]; anticoagulant 0.75 wgt %): 6.78 10^6/μl | MCV Day 20 ([5]; anticoagulant 0.75 wgt %): 92.7 | MCV Day 33 ([5]; anticoagulant 0.75 wgt %): 92.7 | RBC Day 1 ([5]; anticoagulant 0.90 wgt %): 5.82 10^6/μl | MCV Day 20 ([5]; anticoagulant 0.90 wgt %): 92.2 | MCV Day 33 ([5]; anticoagulant 0.90 wgt %): 92.9

O=C([O-])CC(O)(CC(=O)[O-])C(=O)[O-].[Na+].[Na+].[Na+] [Na Citrate, sodium citrate, reference compound]
Alk. Phos [1, 6]: 16 IU/.L | LDH [1, 6]: 24 IU/L | SGOT [1, 6]: 1 IU/L | SGPT [1, 6]: 1 IU/L | fIX [1, 6]: 14% | fV [1, 6]: 15% | fVIII [1, 6]: 29% | fibrinogen [1, 6]: 88 mg/dL | Alk. Phos ([1]; Pre glass beads): 27 IU/.L | LDH ([1]; Pre glass beads): 100 IU/L | SGOT ([1]; Pre glass beads): 15 IU/L | SGPT ([1]; Pre glass beads): 29 IU/L | fIX ([1]; Pre glass beads): 103% | fV ([1]; Pre glass beads): 98% | fVIII ([1]; Pre glass beads): 102% | fibrinogen ([1]; Pre glass beads): 258 mg/dL | Alk. Phos [2, 7]: 23 IU/.L | LDH [2, 7]: 84 IU/L | SGOT [2, 7]: 15 IU/L | SGPT [2, 7]: 21 IU/L | fIX [2, 7]: 67% | fV [2, 7]: 45% | fVIII [2, 7]: 56% | fibrinogen [2, 7]: 15 mg/dL | Alk. Phos ([2]; before heating, fresh plasma): 30 IU/.L | LDH ([2]; before heating, fresh plasma): 110 IU/L | SGOT ([2]; before heating, fresh plasma): 18 IU/L | SGPT ([2]; before heating, fresh plasma): 32 IU/L | fIX ([2]; before heating, fresh plasma): 104% | fV ([2]; before heating, fresh plasma): 98% | fVIII ([2]; before heating, fresh plasma): 109% | fibrinogen ([2]; before heating, fresh plasma): 206 mg/dL | PT (4 hrs at RT) ([3]; anticoagulant 0.65 wgt %): 13.1 s | PTT (4 hrs at RT) ([3]; anticoagulant 0.65 wgt %): 28.7 s | PT (4 hrs at RT) ([3]; anticoagulant 0.75 wgt %): 14.1 s | PTT (4 hrs at RT) ([3]; anticoagulant 0.75 wgt %): 31.5 s | PT (4 hrs at RT) ([3]; anticoagulant 0.90 wgt %): 21.2 s | PTT (4 hrs at RT) ([3]; anticoagulant 0.90 wgt %): 35.0 s | Level of calcium measured ([4]; Citrate Level 0.01%): 9.2 mg/dL | Level of calcium measured ([4]; Citrate Level 0.05%): 8.7 mg/dL | Level of calcium measured ([4]; Citrate Level 0.1%): 5.3 mg/dL | Level of calcium measured ([4]; Citrate Level 0.25%): 2.5 mg/dL | Level of calcium measured ([4]; Citrate Level 0.5%): 0.6 mg/dL | Level of calcium measured ([4]; Citrate Level 1%): 0 mg/dL | RBC Day 1 ([5]; anticoagulant 0.65 wgt %): 5.43 10^6/μl | MCV Day 20 ([5]; anticoagulant 0.65 wgt %): 97.1 | MCV Day 33 ([5]; anticoagulant 0.65 wgt %): 94.3 | RBC Day 1 ([5]; anticoagulant 0.75 wgt %): 5.86 10^6/μl | MCV Day 20 ([5]; anticoagulant 0.75 wgt %): 98.7 | MCV Day 33 ([5]; anticoagulant 0.75 wgt %): 103.2 | RBC Day 1 ([5]; anticoagulant 0.90 wgt %): 6.07 10^6/μl | MCV Day 20 ([5]; anticoagulant 0.90 wgt %): 97.8 | MCV Day 33 ([5]; anticoagulant 0.90 wgt %): 103.3
